± gives the expanded uncertainty stated by the source.
Assay: mn = molality of the nth substance listed, in mol/kg
Details: 101 kPa, Liquid, Alternating current cell with electrodes

C[N+](C)(C)CCO.O=C([O-])C(F)(F)C(F)(F)C(F)(F)C(F)(F)C(F)(F)C(F)(F)C(F)(F)F [(2-hydroxyethyl)trimethylammonium perfluorooctanoate] + O
Details	electrical conductivity [S/m]
293.15 K, m1 = 7.6e-05	0.0005 ± 0.0001
293.15 K, m1 = 0.000243	0.0015 ± 0.0001
293.15 K, m1 = 0.000338	0.0021 ± 0.0001
293.15 K, m1 = 0.000489	0.0031 ± 0.0002
293.15 K, m1 = 0.000626	0.0039 ± 0.0002
293.15 K, m1 = 0.000747	0.0046 ± 0.0003
293.15 K, m1 = 0.000847	0.0053 ± 0.0003
293.15 K, m1 = 0.000968	0.0061 ± 0.0004
293.15 K, m1 = 0.001108	0.007 ± 0.0004
293.15 K, m1 = 0.001301	0.008 ± 0.0005
293.15 K, m1 = 0.001463	0.0091 ± 0.0005
293.15 K, m1 = 0.001591	0.0098 ± 0.0006
293.15 K, m1 = 0.001689	0.0106 ± 0.0006
293.15 K, m1 = 0.00186	0.0114 ± 0.0007
293.15 K, m1 = 0.001996	0.0123 ± 0.0007
293.15 K, m1 = 0.002117	0.0129 ± 0.0008
293.15 K, m1 = 0.00224	0.0138 ± 0.0008
293.15 K, m1 = 0.002376	0.0145 ± 0.0009
293.15 K, m1 = 0.002497	0.0153 ± 0.0009
293.15 K, m1 = 0.00262	0.016 ± 0.001
293.15 K, m1 = 0.002737	0.0167 ± 0.001
293.15 K, m1 = 0.002945	0.018 ± 0.0011
293.15 K, m1 = 0.00309	0.0188 ± 0.0011
293.15 K, m1 = 0.003212	0.0196 ± 0.0012
293.15 K, m1 = 0.003363	0.0202 ± 0.0012
293.15 K, m1 = 0.003476	0.0208 ± 0.0012
293.15 K, m1 = 0.003596	0.0216 ± 0.0013
293.15 K, m1 = 0.003714	0.0222 ± 0.0013
298.15 K, m1 = 6.2e-05	0.0004 ± 0.0001
298.15 K, m1 = 0.000138	0.0009 ± 0.0001
298.15 K, m1 = 0.00019	0.0013 ± 0.0001
298.15 K, m1 = 0.000258	0.0018 ± 0.0001
298.15 K, m1 = 0.000317	0.0022 ± 0.0001
298.15 K, m1 = 0.000375	0.0026 ± 0.0002
298.15 K, m1 = 0.000432	0.003 ± 0.0002
298.15 K, m1 = 0.000488	0.0034 ± 0.0002
298.15 K, m1 = 0.000547	0.0038 ± 0.0002
298.15 K, m1 = 0.000619	0.0044 ± 0.0003
298.15 K, m1 = 0.000704	0.0049 ± 0.0003
298.15 K, m1 = 0.00077	0.0054 ± 0.0003
298.15 K, m1 = 0.000828	0.006 ± 0.0004
298.15 K, m1 = 0.00091	0.0066 ± 0.0004
298.15 K, m1 = 0.000999	0.0072 ± 0.0004
298.15 K, m1 = 0.001085	0.0078 ± 0.0005
298.15 K, m1 = 0.001174	0.0084 ± 0.0005
298.15 K, m1 = 0.001268	0.009 ± 0.0005
298.15 K, m1 = 0.001353	0.0096 ± 0.0006
298.15 K, m1 = 0.001452	0.0102 ± 0.0006
298.15 K, m1 = 0.001544	0.0109 ± 0.0007
298.15 K, m1 = 0.001654	0.0115 ± 0.0007
298.15 K, m1 = 0.001755	0.0119 ± 0.0007
298.15 K, m1 = 0.00185	0.0125 ± 0.0008
298.15 K, m1 = 0.001933	0.013 ± 0.0008
298.15 K, m1 = 0.002054	0.0138 ± 0.0008
298.15 K, m1 = 0.002177	0.0146 ± 0.0009
298.15 K, m1 = 0.002284	0.0152 ± 0.0009
298.15 K, m1 = 0.00241	0.016 ± 0.001
298.15 K, m1 = 0.002525	0.0167 ± 0.001
298.15 K, m1 = 0.002643	0.0174 ± 0.001
298.15 K, m1 = 0.002738	0.018 ± 0.0011
298.15 K, m1 = 0.002963	0.0194 ± 0.0012
298.15 K, m1 = 0.003158	0.0205 ± 0.0012
298.15 K, m1 = 0.003285	0.0213 ± 0.0013
298.15 K, m1 = 0.003418	0.0221 ± 0.0013
298.15 K, m1 = 0.003542	0.0228 ± 0.0014
298.15 K, m1 = 0.00364	0.0234 ± 0.0014
298.15 K, m1 = 0.003768	0.0242 ± 0.0015
298.15 K, m1 = 0.003952	0.0253 ± 0.0015
298.15 K, m1 = 0.004493	0.0287 ± 0.0017
298.15 K, m1 = 0.005611	0.0355 ± 0.0021
298.15 K, m1 = 0.006271	0.0391 ± 0.0023
298.15 K, m1 = 0.006873	0.0424 ± 0.0025
298.15 K, m1 = 0.007507	0.0463 ± 0.0028
303.15 K, m1 = 6.9e-05	0.0006 ± 0.0001
303.15 K, m1 = 0.000173	0.0013 ± 0.0001
303.15 K, m1 = 0.000265	0.002 ± 0.0001
303.15 K, m1 = 0.000396	0.0031 ± 0.0002
303.15 K, m1 = 0.000504	0.0039 ± 0.0002
303.15 K, m1 = 0.000614	0.0048 ± 0.0003
303.15 K, m1 = 0.000711	0.0055 ± 0.0003
303.15 K, m1 = 0.000794	0.0061 ± 0.0004
303.15 K, m1 = 0.000992	0.0077 ± 0.0005
303.15 K, m1 = 0.001091	0.0084 ± 0.0005
303.15 K, m1 = 0.001177	0.0091 ± 0.0005
303.15 K, m1 = 0.00129	0.0099 ± 0.0006
303.15 K, m1 = 0.001381	0.0105 ± 0.0006
303.15 K, m1 = 0.001497	0.0113 ± 0.0007
303.15 K, m1 = 0.001589	0.012 ± 0.0007
303.15 K, m1 = 0.001698	0.0128 ± 0.0008
303.15 K, m1 = 0.002339	0.0176 ± 0.0011
303.15 K, m1 = 0.002615	0.0196 ± 0.0012
303.15 K, m1 = 0.002737	0.0204 ± 0.0012
303.15 K, m1 = 0.002834	0.021 ± 0.0013
303.15 K, m1 = 0.002921	0.0216 ± 0.0013
303.15 K, m1 = 0.003011	0.0222 ± 0.0013
303.15 K, m1 = 0.003103	0.0229 ± 0.0014
303.15 K, m1 = 0.003204	0.0237 ± 0.0014
303.15 K, m1 = 0.003323	0.0244 ± 0.0015
303.15 K, m1 = 0.003408	0.025 ± 0.0015
